In PubChem BioAssay (NCI):
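The compound was tested at five concentrations on cells cultured in 96-well plates, with a 48-hour exposure period. TGI: concentration producing complete growth inhibition.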

Tests used:
Assay in all cases: inhibition of tumour cell growth, NCI panel, 48 h
[1] = test system: SNB-75 CNS
[2] = test system: RXF 393 renal
[3] = test system: MCF7 breast
[4] = test system: CCRF-CEM leukemia
[5] = test system: MDA-N
[6] = test system: SK-MEL-5 melanoma
[7] = test system: LOX IMVI melanoma
[8] = test system: SK-MEL-2 melanoma
[9] = test system: UACC-257 melanoma
[10] = test system: OVCAR-5 ovarian
[11] = test system: BT-549 breast

| SMILES | TGI [1] | TGI [2] | TGI [3] | TGI [4] | TGI [5] | TGI [6] | TGI [7] | TGI [8] | TGI [9] | TGI [10] | TGI [11] |
| --- | --- | --- | --- | --- | --- | --- | --- | --- | --- | --- | --- |
| CCc1ccccc1NNc1cc(=O)[nH]c(=O)[nH]1 | 40.5 µM | 40.1 µM | 39.1 µM | 82.8 µM | 33.6 µM | 32.4 µM | 29.4 µM | 56.2 µM | 35.9 µM | 37.3 µM | 41.4 µM |
| O=C(OCC(Cl)(Cl)Cl)O[C@@H]1CCCC1(c1ccccc1)c1ccccc1 | > 100 µM | > 100 µM | > 100 µM | > 100 µM | > 100 µM | > 100 µM | > 100 µM | – | > 100 µM | > 100 µM | > 100 µM |
| O=c1[nH]cnc2c1nnn2CCCCCCCCCCCCn1nnc2c(=O)[nH]cnc21 | > 57.2 µM | > 50.5 µM | > 100 µM | > 100 µM | > 100 µM | > 100 µM | > 100 µM | 51 µM | > 100 µM | > 100 µM | > 100 µM |
| COc1ccc(C(C2=C(O)COC2=O)c2cc3c(cc2O)OCO3)cc1OC (configuration not stated) | > 100 µM | > 100 µM | > 100 µM | > 100 µM | > 100 µM | > 100 µM | > 100 µM | > 100 µM | > 100 µM | > 100 µM | > 100 µM |
| CC(C)(C)OC(=O)NCCCCC(NC(=O)c1ccccc1)C(N)=O (configuration not stated) | > 100 µM | > 100 µM | > 100 µM | > 100 µM | > 100 µM | > 100 µM | > 100 µM | > 100 µM | > 100 µM | > 100 µM | > 100 µM |
| C[Si](C)(c1ccccc1)[C@H]1CCCC=C1CCNC1c2ccccc2CCc2ccccc21 | > 100 µM | > 100 µM | > 100 µM | > 100 µM | > 100 µM | > 100 µM | > 100 µM | > 100 µM | > 100 µM | > 100 µM | > 100 µM |
| O=C1C(CN2CCOCC2)CCCC1CN1CCOCC1 (configuration not stated) | 29.9 µM | 4.14 µM | 1.57 µM | 4.03 µM | 16.1 µM | 23.9 µM | 8.98 µM | 16.3 µM | 5.72 µM | 36.6 µM | 3.5 µM |
| C[C@@H]1S[C@H](c2c(Cl)cccc2Cl)N2Cc3ccccc3N=C12 | > 100 µM | > 100 µM | > 100 µM | > 100 µM | > 100 µM | > 100 µM | > 100 µM | > 100 µM | > 100 µM | > 100 µM | > 100 µM |
| CCN(CC)c1ccc(/C=C/C=C2C(=O)NC(=S)NC2=O)cc1 | > 100 µM | 45.2 µM | > 100 µM | > 100 µM | > 61.6 µM | > 100 µM | > 100 µM | > 100 µM | > 100 µM | > 100 µM | > 75.4 µM |
| COc1ccc(/C=C/C2=NN(c3cccc(S(=O)(=O)O)c3)C3(C2)SCC(=O)N3c2nc3ccccc3s2)cc1 (configuration not stated) | > 100 µM | > 100 µM | > 100 µM | 77.5 µM | > 100 µM | > 100 µM | > 100 µM | > 100 µM | > 100 µM | > 100 µM | > 100 µM |
| C[Si](C)(C)C1=C([Si](C)(C)C)C(Cl)(Cl)C1=O | 24.9 µM | 5.33 µM | 23.4 µM | 1.42 µM | 5.39 µM | 5.89 µM | 3.51 µM | 34.6 µM | 6.95 µM | 20 µM | 16.1 µM |
| Cc1ccc2c(c1)C(=O)C(C1OC(=O)c3ccccc31)C2 (configuration not stated) | > 100 µM | > 100 µM | > 100 µM | > 100 µM | > 100 µM | > 100 µM | > 100 µM | > 100 µM | > 100 µM | > 100 µM | > 100 µM |
| C[C@H]1S[C@H](c2c(Cl)cccc2Cl)N2Cc3ccccc3N=C12 | 32.4 µM | 30.4 µM | 42.1 µM | > 100 µM | > 100 µM | 23.3 µM | 32.6 µM | 26.1 µM | 45.6 µM | 37.5 µM | > 100 µM |
| O=[N+]([O-])c1ccc(O)c(/C=N/NC(=S)N2CCCCC2)c1 | 33.1 µM | > 100 µM | > 100 µM | > 82 µM | 60.1 µM | 21 µM | 17.1 µM | 50.4 µM | 14.1 µM | > 100 µM | 63.4 µM |
| CSc1c(C(=O)Nc2ccc(Cl)cc2)c(N)n(N)c(=O)c1C#N | > 100 µM | > 100 µM | > 100 µM | > 100 µM | > 100 µM | > 100 µM | > 100 µM | > 100 µM | > 100 µM | > 100 µM | > 100 µM |
| CCOc1cc(NC(C)=O)ccc1C(=O)NN1C(=O)CSC1c1ccccc1 (configuration not stated) | > 100 µM | > 100 µM | > 100 µM | > 100 µM | > 100 µM | > 100 µM | > 100 µM | > 100 µM | > 100 µM | > 100 µM | > 100 µM |
| c1cnc(N2CCN(Cc3c[nH]c4ccccc34)CC2)nc1 | > 100 µM | > 100 µM | 53.7 µM | > 100 µM | > 100 µM | > 100 µM | > 100 µM | 31.4 µM | > 100 µM | > 100 µM | > 100 µM |
| O=C1c2cn[nH]c2C(c2ccccc2)N1c1ccccc1 (configuration not stated) | > 10 µM | > 10 µM | > 10 µM | > 10 µM | > 10 µM | > 10 µM | > 10 µM | > 10 µM | > 10 µM | > 10 µM | > 10 µM |
| C/C1=C\C=C(\C(C)C)CC/C(C(=O)O)=C\CC/C(C)=C/CC1 | > 100 µM | 41.4 µM | 34.8 µM | 41.8 µM | 82 µM | 34.7 µM | 49.5 µM | 32.8 µM | 56.1 µM | 78 µM | 79.9 µM |
| NC(Cc1ccc(S(=O)(=O)O)cc1)C(=O)NC(Cc1ccc(S(=O)(=O)O)cc1)C(=O)O (configuration not stated) | > 100 µM | > 100 µM | > 100 µM | > 100 µM | > 100 µM | > 100 µM | > 100 µM | > 100 µM | > 100 µM | > 100 µM | > 100 µM |
| CC(=N\N)/C(C)=N/N=C(C)/C(C)=N/N=C(C)/C(C)=N/N | > 100 µM | > 100 µM | > 100 µM | > 100 µM | > 100 µM | > 100 µM | > 100 µM | > 100 µM | > 100 µM | > 100 µM | > 100 µM |
| COc1ccccc1C[C@@H]1OC2(C=CC(=O)C=C2)O[C@H]1Cc1ccccc1OC | 17.6 µM | 3.81 µM | 17.6 µM | 8.6 µM | 21.7 µM | 16.1 µM | 13.8 µM | 18.4 µM | 16.1 µM | 16.5 µM | 11.5 µM |
| CN(C)c1cc[n+](-c2nc(/N=C(\[O-])C(F)(F)F)nc3c2ncn3C2CC(O)C(CO)O2)cc1 (configuration not stated) | > 100 µM | > 100 µM | > 100 µM | > 100 µM | > 100 µM | > 100 µM | > 100 µM | > 100 µM | – | > 100 µM | > 100 µM |
| CC1CC(=O)N(N(C)C)C(C#N)(C#N)C1(C#N)C#N (configuration not stated) | > 51 µM | 26.6 µM | > 100 µM | 4.8 µM | 33.2 µM | 47 µM | 42.7 µM | 59.3 µM | 29.8 µM | 51.8 µM | 32.7 µM |
